Source: US20200360349A1, “ADMINISTRATION OF MONOBACTAM FOR THE TREATMENT OF URINARY TRACT INFECTION” (Novartis AG, priority 2017, published 2020)

What was measured:
[1] = Safety and tolerability of single doses of LYS228; assay type: in vivo, human; conditions: following single doses up to 6000 mg
Source text: and including any ionic species thereof is a compound with antibacterial activity (See PCT Application No. PCT/US2015/022011, which is incorporated herein by reference). […] LYS228 kills bacteria by inhibiting cell wall synthesis through covalent modification of the active site serine of penicillin binding protein 3 (PBP3). Aztreonam is the only monobactam approved for clinical use (Tunkel and Scheld Infect Control Hosp Epidemiol p. 486-94, 1990). MBL-expressing Enterobacteriaceae can inactivate all classes of (3-lactam drugs, except monocyclic (3-lactams like the monobactams. MBLs are frequently co-expressed with SBLs. The prevalence of strains expressing the New Delhi metal-β-lactamase-1 (NDM-1) is as high as 12% in clinical isolates from patients with invasive infections in India (Biedenbach et al Antimicrob. Agents Chemother. p. 826-30, 2015, Rahman et al India. Int. J. Antimicrob. Agents p. 30-7, 2014); infections caused by strains expressing NDM-1 and other MBLs have been detected globally, including in Europe, the United States, China, and Japan (Kazmierczak et al Antimicrob. Agents Chemother. p. 1067-78, 2016). […]

[2] = test system: Gram-negative bacteria, including strains that show resistance to other monobactams; conditions: cited from earlier work

Structure (SMILES): Nc1nc(/C(=N/OC2(C(=O)O)CC2)C(=O)N[C@@H]2C(=O)N(S(=O)(=O)O)[C@@H]2CN2CCOC2=O)cs1 [LYS228, 1-(((Z)-(1-(2-aminothiazol-4-yl)-2-oxo-2-(((3S,4R)-2-oxo-4-((2-oxooxazolidin-3-yl)methyl)-1-sulfoazetidin-3-yl)amino)ethylidene)amino)oxy)cyclopropanecarboxylic acid]
- safety and tolerability [1]: safe and well-tolerated
- activity against Gram-negative bacteria [2]: strong activity
